Entries after “also recorded” stand apart in the source; their conditions may differ.
Tests used:
[1] = test system: A549 lung cancer cell line; assay: Side population by Hoechst 33342 staining and flow cytometry; assay type: cell-based, human
[2] = test system: mouse bone marrow cells; assay: as above
[3] = test system: ALDH1; assay: ALDEFLUOR assay with or without DEAB; assay type: cell-based, human
Method: Aldehyde dehydrogenase (ALDH1) is a useful marker for isolating primitive stem cell populations including normal human mammary stem and progenitor cells as well as transformed tumor-initiating stem cells. In this example, GI-101A, MCF7, MDA-MB-231, Hs 578T, and SUM139PT breast cancer cell lines were tested for activity of the ALDH1 marker using a commercial assay to detect ALDH1 expression and thereby identify tumor stem cells (the ALDEFLUOR® assay (available from Stemcell™ Technologies, Vancouver BC, CA; see Ginestier et al. (2007) Cell Stem Cell 1(5):555-567)). […] The ALDH substrate fluoresces upon cleavage by ALDH.
ALDEFLUOR® assay fluorescence was excited at 488 nm and fluorescence emission was detected using a standard FITC 530/30 band pass filter. The sorting gates were established using propidium iodide stained cells for viability and the ALDEFLUOR® assay-stained cells treated with DEAB as negative controls.
To supplement the flow cytometric analysis, the presence of ALDH in GI-101A was assessed visually by fluorescence microscopy. ALDEFLUOR® assay-labeled cells, with or without DEAB, were counterstained with the nuclear dye 4′,6-diamidino-2-phenylindole (DAPI). Phase contrast and fluorescent images of the cells were taken using a fluorescence microscope, equipped with the appropriate filters and a digital camera, using a 100× objective.
First an ALDEFLUOR assay was performed on GI-101 cells in the presence or absence of DEAB inhibitor as described in Example 21. The ALDEFLUOR stained cells were then subjected to staining with CD44, CD24 and CD49f antibodies. The ALDEFLUOR stained cells were centrifuged for 10 minutes at 300×g at 4° C. and resuspended to a concentration of 2×10^7 cells per mL in cold staining buffer. 50 μL it of cells were added to 12×75 round bottoms tubes on ice for each stain. 10 μL diluted antibody mixture was added and incubated for 30-45 minutes in an ice bath to minimize release of the Hoechst dye. […] The cells were washed twice with 2 mL staining buffer at 4° C. The cells were resuspended in 400 μL it staining buffer and kept on ice until analyzed by flow cytometry.

[4] = test system: HMLE cells; assay: EMT induction in human mammary epithelial cells; assay type: cell-based
Method: Human mammary epithelial cells (HMLE; Dr. Robert A. Weinberg) were plated at a density of about 50% in DMEM/F-12 medium and incubated overnight at 37° C. in a CO2 incubator. The cells were then cultured in inducing medium (DMEM/F-12 (1:1) medium supplemented with insulin, hydrocortisone, 5% FBS, and 2.5 ng/mL TGF-β1) to induce EMT or non-inducing medium (i.e. without TGF-β1). The inducing medium or non-inducing medium was refreshed every 3 days for 12 days. Following EMT treatment, one set of cells were immunostained for E-cadherin, vimentin and fibronectin expression, three widely used EMT markers. Another set of cells was harvested, stained for CD44 and CD24 expression and analyzed by flow cytometry as described in Example 27.
For immunostaining of E-cadherin, vimentin and fibronectin, cells were fixed and permeabilized on the culture plates and incubated with FITC-conjugated antibodies against E-cadherin, vimentin and fibronectin using a standard cell staining protocol. Following removal of unbound antibody, the cells were counterstained with the nuclear dye 4′,6-diamidino-2-phenylindole (DAPI). After staining, phase contrast and fluorescent images of the cells were taken using a fluorescence microscope, equipped with the appropriate filters and a digital camera, using a 100× objective.

Compound: COc1ccc2c3c([nH]c2c1)[C@H](C=C(C)C)N1C(=O)[C@@H]2CCCN2C(=O)[C@@H]1C3 [FTC, Fumitremorgin C]
- side population cells ([1]; 25 μM): 1.31±0.2%
- side population cells ([1]; 50 μM): 0.92±0.2%
- side population cells ([1]; 100 μM): 0.62±0.1%
- side population cells ([1]; 200 μM): 0.46±0.08%

Compound: COc1ccc(CCN(C)CCCC(C#N)(c2ccc(OC)c(OC)c2)C(C)C)cc1OC (stereo not shown) [Verapamil]
- side population, percent of registered events ([2]; 50 μM): 3.74±0.3%
- side population, percent of registered events ([2]; 100 μM): 1.76±0.1%

Compound: CCN(CC)c1ccc(C=O)cc1 [DEAB]
- ALDH− cells ([3]; CD44/CD24 staining set): 99.9%
- ALDH+ cells ([3]; CD44/CD49f staining set): 0.09%
- ALDH− cells ([3]; CD44/CD49f staining set): 99.9%
- ALDH+ cells ([3]; GI-101 cells, CD44/CD24 staining set): 0.09%

Compound: TGF-β1: transforming growth factor β used to induce EMT
- CD44^+/CD24^−/low cells ([4]; 2.5 ng/mL, 12 days EMT induction): 51.9%±3
- EMT marker expression (E-cadherin, vimentin, fibronectin) ([4]; 12 days post-EMT induction, versus non-induced): E-cadherin expression was down-regulated; also recorded: vimentin expression was up-regulated; also recorded: fibronectin expression was up-regulated

Compound: COC(=O)[C@H]1[C@H]2C[C@@H]3c4[nH]c5cc(OC)ccc5c4CCN3C[C@H]2C[C@@H](OC(=O)c2cc(OC)c(OC)c(OC)c2)[C@@H]1OC [reserpine]
- side population cells ([1]; 12.5 μM): 1.51±0.1%
- side population cells ([1]; 25 μM): 0.56±0.08%
- side population cells ([1]; 50 μM): 0.51±0.01%
- side population cells ([1]; 200 μM): 0.48±0.06%

Source: US20140087362A1 (priority 2012, published 2014)
